In ChEMBL document CHEMBL1201862, “PubChem BioAssay data set” (2004):
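Dose response: 5 concentrations. Exposure: 48 h. Format: 96-well plates. Endpoint: linear interpolation; highest concentration if not reached. GI50 marks 50% less growth.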 Calls of active or inactive are those of the source. Cut-off read from the data, not from the text of the source: active = GI50 up to about 1.1 µM and inactive = higher.

Legend:
Experiment in all cases: inhibition of tumour cell growth, NCI panel, 48 h
RXF 631 = system: RXF 631
HOP-18 = system: HOP-18
DMS-273 = system: DMS-273
M19-MEL = system: M19-MEL
LXFL 529 = system: LXFL 529
SNB-78 = system: SNB-78
DMS-114 = system: DMS-114
DLD-1 = system: DLD-1
XF498 = system: XF498

Measured: GI50

COc1cc2c(cc1OC)C(=O)Cc1ccc(OC)c(OC)c1CN(C)CC2
inactive: RXF 631 > 100 µM | HOP-18 32.4 µM | DMS-273 > 100 µM | M19-MEL > 100 µM | LXFL 529 > 100 µM | SNB-78 > 100 µM | DMS-114 > 100 µM | DLD-1 > 100 µM | XF498 24.5 µM

COC(=O)c1ccc(CS(=O)(=O)c2ccccc2)cc1
inactive: RXF 631 > 100 µM | HOP-18 > 100 µM | DMS-273 45.4 µM | M19-MEL 45.4 µM | LXFL 529 > 100 µM | SNB-78 > 100 µM | DMS-114 64.3 µM | DLD-1 91.8 µM | XF498 > 100 µM

CCC(=O)OCOc1ccc(/C=C2\CCC(CN(C)C)C2=O)cc1 (stereo unspecified)
inactive: RXF 631 8.34 µM | HOP-18 15.4 µM | DMS-273 3.97 µM | M19-MEL 4.47 µM | LXFL 529 2.94 µM | SNB-78 9.68 µM | DMS-114 18.3 µM | DLD-1 2.19 µM | XF498 2.14 µM

COc1cc2c(cc1O)[C@H](C)C(c1ccc(Cl)cc1)O2 (stereo partly specified)
inactive: RXF 631 26 µM | HOP-18 36.2 µM | DMS-273 16.5 µM | M19-MEL 15.8 µM | LXFL 529 17.2 µM | SNB-78 21.3 µM | DMS-114 13.9 µM | DLD-1 24.8 µM | XF498 15.5 µM
